The text below walks through data of EP2271651B1, “ISOTHERMAL PROCESS FOR PHOSPHOROMONOCHLORIDITE SYNTHESIS” (Dow Global Technologies LLC, priority 2008, dated 2009).

Like-named read-outs stand apart in the source and are kept apart here.

Data set [1] in a line: Solubility of the aromatic diol in organic solvent (equilibrium solubility method). In kind it is physicochemical. The following applies: based on the weight of the solution. An excerpt: The solubility of the aromatic diol in the organic solvent can be measured by using known procedures. For example, the solubility of the aromatic diol in the organic solvent at a specific temperature can be determined by an equilibrium solubility method, which employs a saturated solution of the aromatic diol, obtained by stirring an excess amount of the aromatic diol in the organic solvent at the specific temperature for a sufficient period of time until equilibrium is achieved. Thereafter, the resulting liquid phase saturated solution, the resulting solid phase, or both liquid and solid phases are analyzed by any conventional analytical method to arrive at the solubility of the aromatic diol in the organic solvent.
In this first embodiment, generally, the aromatic diol has a low solubility in the first organic solvent. […] Accordingly, this embodiment generally requires a) a large quantity of the first organic solvent to solubilize essentially all of the aromatic diol, and/or b) preparation and maintenance of the feed solution at an elevated temperature to increase and maintain solubility of the diol in the feed solution. […]

For data set [2] the following is noted: cited from earlier work; for HCl solubility: total pressure of 760 mm Hg (101 kPa).

Consider `Oc1ccccc1-c1ccccc1O` [2,2'-biphenol], for which the figures for the solubility in toluene in data set [1] (at 19°C) and in data set [1] (at 40°C) were 2.7 percent by weight and 7.3 percent by weight, respectively.

Regarding `Clc1ccccc1` [Chlorobenzene], the HCl solubility in data set [2] (At 20°C) is 0.033 Mol/mol organic solvent.

In the case of `C1CCOC1` [Tetrahydrofuran], the “hydrogen chloride absorbed/dissolved by one mole of solvent” value in data set [2] (at 10°C and a total pressure of 760 mm Hg (101 kPa)) was 1.38 mol.

As to `Cc1cccc(C)c1` [m-Xylene], the HCl solubility in data set [2] (At 20°C) is on record as 0.071 Mol/mol organic solvent.

As to `CCCCCCCCCC` [n-Decane], the HCl solubility in data set [2] (At 10°C) is recorded as 0.028 Mol/mol organic solvent.

On to `CCCCCCC` [n-Heptane], for which the HCl solubility was 0.02 Mol/mol organic solvent in data set [2] (At 10°C) and 0.015 Mol/mol organic solvent in data set [2] (At 20°C).

In the case of `Cc1ccc(C)cc1` [p-Xylene], the values for the HCl solubility in data set [2] (At 10°C) and in data set [2] (At 20°C) were 0.08 Mol/mol organic solvent and 0.064 Mol/mol organic solvent, respectively.
